Here are results for eleven compounds from ChEMBL document CHEMBL1201862, “PubChem BioAssay data set” (2004).

Test systems include CAKI-1; HOP-62; NCI-H23; SF-295; SK-MEL-2; TK-10; MDA-MB-231; U-251; COLO 205; UACC-62; SR; SNB-19; UO-31; HOP-92; MCF7; LOX IMVI; NCI-H460; SK-MEL-5; RXF 393; OVCAR-4.
Test in all cases: growth of human tumour cells (NCI), 48 h

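Cultured in 96-well plates, cells were exposed to test compound for 48 hours across five concentrations. At the GI50, growth is halved.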 The source made the active and inactive calls. No stated cut-off is given here; in the data, active = GI50 up to about 1.1 µM and inactive = higher.

Turning to `O=c1c2ccccc2nc2[nH][nH]c(=S)n12`, the GI50 in the test on CAKI-1, in the test on HOP-62, in the test with NCI-H23, in the test with SF-295, in the test with SK-MEL-2 and in the test with TK-10 was > 100 µM (inactive) in each case. The GI50 with MDA-MB-231, with U-251, in the test on COLO 205, with UACC-62, in the test on SR and in the test on SNB-19 was > 100 µM (inactive) each time. The GI50 in the test on UO-31, in the test with HOP-92, in the test with MCF7, in the test with LOX IMVI, with NCI-H460 and in the test with SK-MEL-5 was > 100 µM (inactive) in each case.
Take `Cc1cccc2c1[C@]13OC(C)[C@]4(C)CC5OC(=O)[C@@]1(C)[C@@H]5[C@]34C(=O)O2` (stereo partly drawn): the GI50 in the test with CAKI-1, in the test on HOP-62, in the test on NCI-H23, in the test on SF-295, in the test with SK-MEL-2 and in the test on TK-10 was > 100 µM (inactive) throughout. The GI50 in the test on MDA-MB-231, in the test on U-251, in the test with COLO 205, in the test with UACC-62, with SR and with SNB-19 was > 100 µM (inactive) each time. The GI50 in the test on UO-31, with MCF7, in the test with LOX IMVI, in the test with NCI-H460 and with SK-MEL-5 was > 100 µM (inactive) in each case.
Consider `Cc1c2c(OCCCCN3CCN(c4ncccn4)CC3)nn(C)c(=O)c2c(C)n1-c1ccccc1`, for which the GI50 in the test on CAKI-1 is 16.9 µM (inactive); with HOP-62 it was 25.7 µM (inactive); in the test with NCI-H23 it was 19.1 µM (inactive); in the test with SF-295, 16.4 µM (inactive); in the test on SK-MEL-2, 19.6 µM (inactive); in the test with RXF 393, 18.6 µM (inactive). The GI50 was 19 µM (inactive) in the test on TK-10; 16 µM (inactive) with MDA-MB-231; 18.1 µM (inactive) in the test on U-251; 19 µM (inactive) in the test on COLO 205; 16.8 µM (inactive) in the test on UACC-62; 19 µM (inactive) in the test with SNB-19. For the same compound, the GI50 with UO-31 is 15.8 µM (inactive); in the test with HOP-92 it was 16.4 µM (inactive); in the test on MCF7, 16.4 µM (inactive); with LOX IMVI it was 20.4 µM (inactive); with OVCAR-4 it was 19.5 µM (inactive); with NCI-H460, 17.4 µM (inactive). Besides, the GI50 with SK-MEL-5 was 13.8 µM (inactive).
For the compound `COc1ccc2cc(NC(=O)N/N=C\c3ccc(Cl)cc3)ccc2c1`, the GI50 in the test on CAKI-1 was > 100 µM (inactive); in the test on HOP-62, 27.5 µM (inactive); in the test on NCI-H23 it was > 100 µM (inactive); with SF-295, 59.6 µM (inactive); in the test on SK-MEL-2, > 100 µM (inactive); in the test with TK-10, > 100 µM (inactive). In addition, the GI50 is 27.5 µM (inactive) in the test on MDA-MB-231; 41.2 µM (inactive) in the test on U-251; > 100 µM (inactive) in the test with COLO 205; 40.3 µM (inactive) with UACC-62; > 100 µM (inactive) in the test on SR; 46.2 µM (inactive) in the test with SNB-19. For the same compound, the GI50 with UO-31 was > 100 µM (inactive); in the test with HOP-92, > 100 µM (inactive); in the test on MCF7, > 100 µM (inactive); in the test on LOX IMVI, > 100 µM (inactive); in the test on OVCAR-4, 27 µM (inactive); in the test on NCI-H460 it was 50 µM (inactive).
In the case of `COC(=O)C1CCC(=O)N1C(c1ccccc1)c1ccc(OC)c(OC)c1` (stereo not drawn), the GI50 in the test on CAKI-1, with HOP-62, in the test with NCI-H23, in the test with SF-295, with SK-MEL-2 and with TK-10 was > 100 µM (inactive) each time. Further, the GI50 in the test with MDA-MB-231, with U-251, in the test on COLO 205, with UACC-62, with SR and with SNB-19 was > 100 µM (inactive) in each case. The GI50 in the test with UO-31, with HOP-92, in the test with MCF7, in the test with LOX IMVI, with OVCAR-4 and in the test with NCI-H460 was > 100 µM (inactive) each time. For the same compound, the GI50 in the test on SK-MEL-5 was > 100 µM (inactive).
As for `Cc1ccc(N(C(=O)Nc2ccc(F)c(Cl)c2)C2=NCC(C)S2)cc1` (stereo not drawn), the GI50 in the test with CAKI-1 was 22.2 µM (inactive); in the test with HOP-62, > 100 µM (inactive); in the test with NCI-H23, 28.6 µM (inactive); in the test with SF-295 it was 49.3 µM (inactive); with SK-MEL-2, 61.5 µM (inactive); in the test with TK-10 it was 29.7 µM (inactive). In addition, the GI50 in the test with MDA-MB-231 is > 100 µM (inactive); in the test on U-251 it was 50.6 µM (inactive); with COLO 205, 72.4 µM (inactive); in the test on SR, 40.2 µM (inactive); with SNB-19 it was > 100 µM (inactive); with UO-31, > 100 µM (inactive). For the same compound, the GI50 was 8.83 µM (inactive) in the test on MCF7; 30.2 µM (inactive) in the test on LOX IMVI; 38.7 µM (inactive) in the test with OVCAR-4; 45.1 µM (inactive) with NCI-H460; 18.7 µM (inactive) in the test on SK-MEL-5.
On to `Cc1ccc(/C=C2\CCCC(CN(C)C)C2=O)cc1` (stereo not drawn), for which the GI50 in the test on CAKI-1 is 1.55 µM (inactive); in the test on HOP-62 it was 20.4 µM (inactive); in the test on NCI-H23, 2.24 µM (inactive); with SF-295, 17.4 µM (inactive); in the test with SK-MEL-2 it was 4.76 µM (inactive); with RXF 393, 1.79 µM (inactive). Also, the GI50 in the test on TK-10 is 2.77 µM (inactive); in the test with MDA-MB-231, 1.66 µM (inactive); in the test with U-251, 13.5 µM (inactive); in the test on COLO 205, 1.73 µM (inactive); with UACC-62, 2.03 µM (inactive); in the test on SNB-19 it was 16.4 µM (inactive). Further, the GI50 with UO-31 was 1.69 µM (inactive); with HOP-92, 1.88 µM (inactive); in the test on MCF7, 0.525 µM (active); in the test on LOX IMVI it was 1.77 µM (inactive); in the test with OVCAR-4, 2.02 µM (inactive); in the test on NCI-H460 it was 3.48 µM (inactive). In addition, in the test on SK-MEL-5, the GI50 is 3.51 µM (inactive).
Consider `O=C(CC1(O)CCCCC1)OC1CCCC1`, for which the GI50 with CAKI-1, with HOP-62, with NCI-H23, in the test with SF-295, in the test with SK-MEL-2 and with RXF 393 was > 100 µM (inactive) each time. The GI50 in the test on TK-10, in the test with MDA-MB-231, in the test with U-251, in the test on COLO 205, in the test on UACC-62 and in the test on SNB-19 was > 100 µM (inactive) each time. In addition, the GI50 in the test with UO-31, in the test on HOP-92, in the test on MCF7, in the test with LOX IMVI, with OVCAR-4 and in the test with NCI-H460 was > 100 µM (inactive) each time. Besides, the GI50 in the test on SK-MEL-5 was > 100 µM (inactive).
Turning to `CC(C)(CN1CCCCC1)C(/C=C/c1ccccc1)=N\NC(=O)N/N=C(/C=C/c1ccccc1)C(C)(C)CN1CCCCC1`, the GI50 was 2.27 µM (inactive) in the test on CAKI-1; 1.85 µM (inactive) with HOP-62; 2.08 µM (inactive) with NCI-H23; 1.69 µM (inactive) in the test on SF-295; 2.01 µM (inactive) with SK-MEL-2; 1.75 µM (inactive) with TK-10. Further, the GI50 in the test on MDA-MB-231 was 1.36 µM (inactive); with U-251 it was 1.63 µM (inactive); in the test with COLO 205, 1.44 µM (inactive); with UACC-62, 1.54 µM (inactive); in the test with SR, 0.508 µM (active); with SNB-19, 1.91 µM (inactive). Also, the GI50 in the test with UO-31 is 1.13 µM (inactive); with HOP-92, 1.75 µM (inactive); in the test on MCF7 it was 1.71 µM (inactive); with LOX IMVI, 1.8 µM (inactive); in the test with OVCAR-4, 3.93 µM (inactive); in the test on NCI-H460, 1.38 µM (inactive). The GI50 in the test with SK-MEL-5 is 1.72 µM (inactive).
On to `CC1CN=C(Nc2ccc(S(N)(=O)=O)cc2)S1` (stereo not drawn), for which the GI50 in the test with CAKI-1, in the test on HOP-62, in the test on NCI-H23, in the test on SF-295, with SK-MEL-2 and in the test with TK-10 was > 100 µM (inactive) each time. Moreover, the GI50 in the test with MDA-MB-231 was > 100 µM (inactive); with U-251 it was > 100 µM (inactive); with COLO 205, > 100 µM (inactive); in the test with SR it was > 100 µM (inactive); with SNB-19 it was > 100 µM (inactive); with UO-31 it was 39.4 µM (inactive). In addition, the GI50 is > 100 µM (inactive) in the test on HOP-92; 78.5 µM (inactive) in the test with MCF7; > 10 µM (inactive) in the test with LOX IMVI; > 100 µM (inactive) with OVCAR-4; > 100 µM (inactive) in the test with NCI-H460; > 100 µM (inactive) in the test on SK-MEL-5.
On to `CNC(=O)C(C)C1C(=O)/C(=C(O)/C=C\C(C)=C\C(C)C2OC3(C)OC(C=CC34CO4)C2C)C(=O)N1C1CCC(O)C(C)O1` (stereo not drawn), for which the GI50 in the test on CAKI-1, with HOP-62, in the test with SK-MEL-2, with RXF 393, in the test on TK-10 and with MDA-MB-231 was > 100 µM (inactive) each time. Also, the GI50 in the test with U-251, in the test on COLO 205, in the test on UACC-62, with SR, in the test on SNB-19 and in the test with UO-31 was > 100 µM (inactive) in each case. The GI50 in the test on MCF7, in the test on NCI-H460 and in the test on SK-MEL-5 was > 100 µM (inactive) throughout.
